Source: ChEMBL document CHEMBL4819087, “Identification and optimization of 3-bromo-N'-(4-hydroxybenzylidene)-4-methylbenzohydrazide derivatives as mTOR inhibitors that induce autophagic cell death and apoptosis in triple-negative breast cancer” (Eur J Med Chem, 2021)
Calls of active or inactive are those of the source. The rule behind the calls is not given here.

Experiments:
MDA-MB-468 [1] = assay: Induction of apoptosis in human MDA-MB-468 cells assessed as necrotic cells at 2.5 uM after 24 hrs by AnnexinV-FITC/PI staining based flow cytometry analysis (reference value: 1.56%); type: functional
[2] = biological target: Serine/threonine-protein kinase mTOR (Homo sapiens, UniProt P42345); assay: Inhibition of mTOR in human MDA-MB-468 cells assessed as reduction in total 4EBP1 protein level at 0.5 to 2 uM after 24 hrs by Western blot analysis; type: cell-based; conditions: dose 0.5-2 µM
MDA-MB-468 [3] = assay: Induction of apoptosis in human MDA-MB-468 cells assessed as late apoptic cells at 10 uM after 24 hrs by AnnexinV-FITC/PI staining based flow cytometry analysis (reference value: 0.87 to 2.84%); type: functional
MDA-MB-231 = assay: cells; conditions: Homo sapiens, MDA-MB-231, 24 h
Description: Antiproliferative activity against human MDA-MB-231 cells assessed as reduction in cell viability incubated for 24 hrs by MTT assay

- inhibition [2]: Active
- IC50 (MDA-MB-231): 3.38 µM
SMILES: C/C(=N\NC(=O)c1cccc(Br)c1)c1ccc(C(=O)Nc2nc3ccccc3[nH]2)cc1
- Activity (MDA-MB-468 [1]): 1.89%
- Activity (MDA-MB-468 [3]): 12.3%
